Results taken from ChEMBL document CHEMBL3885881, “DrugMatrix”.

Organism: Rattus norvegicus
Test: DrugMatrix - Regimen: Daily Repeat
Format: toxicity, organism-based, Sprague-Dawley
Design: regimen Daily Repeat, gender Male, age 6-8 weeks
Conditions: in vivo, iv, vehicle 100 % SALINE; for ABSOLUTE BASOPHIL / ABSOLUTE EOSINOPHIL / ABSOLUTE LYMPHOCYTE / ABSOLUTE MONOCYTE / ABSOLUTE SEGMENTED NEUTROPHIL / BASOPHIL / EOSINOPHIL / ERYTHROCYTE COUNT / HEMATOCRIT / HEMOGLOBIN / LEUKOCYTE COUNT / LYMPHOCYTE / MEAN CORPUSCULAR HEMOGLOBIN / MEAN CORPUSCULAR HEMOGLOBIN CONCENTRATION / MEAN CORPUSCULAR VOLUME / MONOCYTE / NEUTROPHIL / NUCLEATED RED BLOOD CELLS / PLATELET COUNT: tissue Blood; for ALANINE AMINOTRANSFERASE / ALBUMIN / ALKALINE PHOSPHATASE / ASPARTATE AMINOTRANSFERASE / BLOOD UREA NITROGEN / CARBON DIOXIDE / CHLORIDE / CHOLESTEROL / CREATINE PHOSPHOKINASE / CREATININE / GLUCOSE / LACTATE DEHYDROGENASE / LIPASE / PHOSPHORUS / POTASSIUM / SODIUM / TOTAL BILIRUBIN / TOTAL PROTEIN / URIC ACID: tissue Plasma
[1] = 0 mg/kg, 72 h, dose level Control, time 3 day
[2] = 0 mg/kg, 120 h, dose level Control, time 5 day
[3] = 2 mg/kg, 72 h, dose level Low, time 3 day

Cc1ccc(N(CC2=NCCN2)c2cccc(O)c2)cc1 [PHENTOLAMINE]
ABSOLUTE BASOPHIL [1]: 0 CELLS/uL | ABSOLUTE EOSINOPHIL [1]: 53.17 CELLS/uL | ABSOLUTE LYMPHOCYTE [1]: 13731.5 CELLS/uL | ABSOLUTE MONOCYTE [1]: 186.17 CELLS/uL | ABSOLUTE SEGMENTED NEUTROPHIL [1]: 1645.83 CELLS/uL | BASOPHIL [1]: 0% | EOSINOPHIL [1]: 0.33% | ERYTHROCYTE COUNT [1]: 5.57 x10E6/uL | HEMATOCRIT [1]: 36.33% | HEMOGLOBIN [1]: 13.47 G/DL | LEUKOCYTE COUNT [1]: 15.62 x10E3/uL | LYMPHOCYTE [1]: 88.5% | MEAN CORPUSCULAR HEMOGLOBIN [1]: 24.22 pg | MEAN CORPUSCULAR HEMOGLOBIN CONCENTRATION [1]: 37.1 G/DL | MEAN CORPUSCULAR VOLUME [1]: 65.35 fL | MONOCYTE [1]: 1.17% | NEUTROPHIL [1]: 10% | NUCLEATED RED BLOOD CELLS [1]: 0.17 /100WBC | PLATELET COUNT [1]: 1295.5 x10E3/uL | ALANINE AMINOTRANSFERASE [1]: 46.83 u/L | ALBUMIN [1]: 4.37 G/DL | ALKALINE PHOSPHATASE [1]: 414.33 u/L | ASPARTATE AMINOTRANSFERASE [1]: 72.5 u/L | BLOOD UREA NITROGEN [1]: 17 mg/dL | CARBON DIOXIDE [1]: 23.5 mmol/L | CHLORIDE [1]: 102 MEQ/L | CHOLESTEROL [1]: 80.33 mg/dL | CREATINE PHOSPHOKINASE [1]: 207.83 u/L | CREATININE [1]: 0.22 mg/dL | GLUCOSE [1]: 172.17 mg/dL | LACTATE DEHYDROGENASE [1]: 131 u/L | LIPASE [1]: 10.33 u/L | PHOSPHORUS [1]: 11.75 mg/dL | POTASSIUM [1]: 6.83 MEQ/L | SODIUM [1]: 145.28 MEQ/L | TOTAL BILIRUBIN [1]: 0.22 mg/dL | TOTAL PROTEIN [1]: 6.22 G/DL | URIC ACID [1]: 1.9 mg/dL | ABSOLUTE BASOPHIL [2]: 0 CELLS/uL | ABSOLUTE EOSINOPHIL [2]: 33 CELLS/uL | ABSOLUTE LYMPHOCYTE [2]: 12184 CELLS/uL | ABSOLUTE MONOCYTE [2]: 108 CELLS/uL | ABSOLUTE SEGMENTED NEUTROPHIL [2]: 958.33 CELLS/uL | BASOPHIL [2]: 0% | EOSINOPHIL [2]: 0.17% | ERYTHROCYTE COUNT [2]: 5.9 x10E6/uL | HEMATOCRIT [2]: 36.58% | HEMOGLOBIN [2]: 13.33 G/DL | LEUKOCYTE COUNT [2]: 13.28 x10E3/uL | LYMPHOCYTE [2]: 91.17% | MEAN CORPUSCULAR HEMOGLOBIN [2]: 22.67 pg | MEAN CORPUSCULAR HEMOGLOBIN CONCENTRATION [2]: 36.47 G/DL | MEAN CORPUSCULAR VOLUME [2]: 62.13 fL | MONOCYTE [2]: 0.83% | NEUTROPHIL [2]: 7.83% | NUCLEATED RED BLOOD CELLS [2]: 0.33 /100WBC | PLATELET COUNT [2]: 1475.33 x10E3/uL | ALANINE AMINOTRANSFERASE [2]: 47 u/L | ALBUMIN [2]: 4.35 G/DL | ALKALINE PHOSPHATASE [2]: 368.33 u/L | ASPARTATE AMINOTRANSFERASE [2]: 90.83 u/L | BLOOD UREA NITROGEN [2]: 15.5 mg/dL | CARBON DIOXIDE [2]: 26.5 mmol/L | CHLORIDE [2]: 103.33 MEQ/L | CHOLESTEROL [2]: 71.83 mg/dL | CREATINE PHOSPHOKINASE [2]: 585.33 u/L | CREATININE [2]: 0.19 mg/dL | GLUCOSE [2]: 171.17 mg/dL | LACTATE DEHYDROGENASE [2]: 388.83 u/L | LIPASE [2]: 10.83 u/L | PHOSPHORUS [2]: 11.75 mg/dL | POTASSIUM [2]: 6.21 MEQ/L | SODIUM [2]: 143.7 MEQ/L | TOTAL BILIRUBIN [2]: 0.17 mg/dL | TOTAL PROTEIN [2]: 6.17 G/DL | URIC ACID [2]: 1.98 mg/dL | ABSOLUTE BASOPHIL [3]: 0 CELLS/uL | ABSOLUTE EOSINOPHIL [3]: 44.67 CELLS/uL | ABSOLUTE LYMPHOCYTE [3]: 11097.67 CELLS/uL | ABSOLUTE MONOCYTE [3]: 122.33 CELLS/uL | ABSOLUTE SEGMENTED NEUTROPHIL [3]: 968.67 CELLS/uL | BASOPHIL [3]: 0% | EOSINOPHIL [3]: 0.33% | ERYTHROCYTE COUNT [3]: 5.48 x10E6/uL | HEMATOCRIT [3]: 35.63% | HEMOGLOBIN [3]: 13.4 G/DL | LEUKOCYTE COUNT [3]: 12.23 x10E3/uL | LYMPHOCYTE [3]: 90.67% | MEAN CORPUSCULAR HEMOGLOBIN [3]: 24.5 pg | MEAN CORPUSCULAR HEMOGLOBIN CONCENTRATION [3]: 37.6 G/DL | MEAN CORPUSCULAR VOLUME [3]: 65.03 fL | MONOCYTE [3]: 1% | NEUTROPHIL [3]: 8% | NUCLEATED RED BLOOD CELLS [3]: 0 /100WBC | PLATELET COUNT [3]: 1379.67 x10E3/uL | ALANINE AMINOTRANSFERASE [3]: 31.67 u/L | ALBUMIN [3]: 4.47 G/DL | ALKALINE PHOSPHATASE [3]: 406 u/L | ASPARTATE AMINOTRANSFERASE [3]: 74 u/L | BLOOD UREA NITROGEN [3]: 18.67 mg/dL | CARBON DIOXIDE [3]: 19.67 mmol/L | CHLORIDE [3]: 104.67 MEQ/L | CHOLESTEROL [3]: 76.67 mg/dL | CREATINE PHOSPHOKINASE [3]: 368.67 u/L | CREATININE [3]: 0.22 mg/dL | GLUCOSE [3]: 166 mg/dL | LACTATE DEHYDROGENASE [3]: 137.33 u/L | LIPASE [3]: 10.33 u/L | PHOSPHORUS [3]: 12.63 mg/dL | POTASSIUM [3]: 6.72 MEQ/L | SODIUM [3]: 145.53 MEQ/L | TOTAL BILIRUBIN [3]: 0.13 mg/dL | TOTAL PROTEIN [3]: 6.27 G/DL
